# Test results as given in patent EP4800018A1, “PAN-KRAS INHIBITOR AND USE THEREOF IN MEDICINES” (Betta Pharmaceuticals Co., Ltd., priority 2023, dated 2025).
# Assays:
# [1] = test system: KRAS-G12D mutant tumor cells AGS; experiment: Cell Proliferation Inhibition Assay (AGS), Cell-titer GLO, 96 h; format: cell-based; conditions: Homo sapiens, AGS, 96 h, AGS cells, 96 h incubation, Cell-titer GLO; read-out: AGS(G12D)
# Outline: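 Inhibition % was derived from CellTiter-Glo luminescence (max minus measured, over max minus blank) and fitted to give IC50. Cells were KRAS-G12D AGS in low-attachment wells, treated for 96 h at 37°C.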
# KRAS G12D-cRAF = biological target: T1, KRAS G12D-cRAF (Homo sapiens, UniProt P01116, G12D); experiment: Cellular KRAS G12D-cRAF Binding Inhibition Assay (NanoBRET, AD293 stable cells); format: cell-based; conditions: 3 h incubation, read-out: NanoBRET KRAS G12D
# T1 construct: expressed in transfected cells
# Outline: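 IC50 values derive from fitted % inhibition, normalised to maximum signal and medium-only blank. The read-out is NanoBRET between KRAS G12D-NanoLuc (donor) and cRAF RBD-HaloTag labelled with the 618 ligand (acceptor), in live stably transfected AD293 cells at 1×10^4/well.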
# KRAS G12V-cRAF = biological target: T2, KRAS G12V-cRAF (Homo sapiens, UniProt P01116, G12V); experiment: Cellular KRAS G12V-cRAF Binding Inhibition Assay (NanoBRET, AD293 stable cells); format: cell-based; conditions: 3 h incubation, read-out: NanoBRET KRAS G12V
# T2 construct: expressed in transfected cells
# Outline: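 Binding measured as BRET between NanoLuc and HaloTag-bound NanoBRET 618 ligand (added overnight) in stably expressing AD293 cells. Signals were converted to percent inhibition against max and blank wells and fitted for IC50.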
# [2] = PK Study of Compounds in Mice; format: in vivo, Female ICR mice; conditions: mean; for Cmax: read-out: C0/Cmax
# Description: (§1) The test compound was mixed with the vehicle (10% DMSO/5% Solutol/85% physiological saline), vortexed and sonicated to prepare a clear 0.2 mg/mL intravenous injection solution. The test compound was mixed with the vehicle (20% PEG400/10% Solutol/70% pH 4.5 acetate buffer), vortexed and sonicated to prepare a clear 1 mg/mL oral solution. Female ICR mice aged 6 to 7 weeks were selected and administered the test compound via intravenous (IV) and oral (PO) routes, respectively. Whole blood samples were collected at 5 min, 15 min, 30 min, 1 h, 2 h, 4 h, 7 h, and 24 h for the intravenous route, and at 15 min, 30 min, 1 h, 2 h, 4 h, 7 h, and 24 h for the oral route. Drug concentrations were analyzed by LC-MS/MS method, and pharmacokinetic parameters were calculated using Phoenix WinNonlin software (Pharsight, USA).
# [3] = PK Study of Compounds in Rats; format: in vivo, Male SD rats; conditions: mean; for AUC(0-t): read-out: AUC0-t; for Cmax: read-out: C0/Cmax
# Description: as §1, with “0.5” for “0.2”, “Male SD rats” for “Female ICR mice”
# [4] = PK Study of Compounds in Dogs; format: in vivo, Beagle dogs; conditions: mean; for Cmax: read-out: C0/Cmax
# Description: The test compound was mixed with the vehicle (10% DMSO/5% Solutol/85% physiological saline), vortexed and sonicated to prepare a clear 1 mg/mL intravenous injection solution. The test compound was mixed with the vehicle (10% DMSO + 5% HS15 + 85% 10 mM aqueous citric acid solution), vortexed and sonicated to prepare a clear 0.6 mg/mL oral solution. Beagle dogs (two males, one female) were selected and administered the test compound via intravenous (IV) and oral (PO) routes, respectively. Whole blood samples were collected at 0 min, 5 min, 15 min, 30 min, 1 h, 2 h, 4 h, 6 h, 8 h, 12 h, 24 h, 48 h, and 72 h for the intravenous route, and at 0 min, 15 min, 30 min, 1 h, 2 h, 4 h, 6 h, 8 h, 12 h, 24 h, 48 h, and 72 h for the oral route. Drug concentrations were analyzed by LC-MS/MS method, and pharmacokinetic parameters were calculated using Phoenix WinNonlin software (Pharsight, USA).
# [5] = PO 10 mg/kg vs IV 1 mg/kg (n=3)
# [6] = female, ICR, mouse, whole blood, IV 1 mg/kg (n=3)
# [7] = female, ICR, mouse, whole blood, PO 10 mg/kg (n=3)
# [8] = male, SD, rat, whole blood, IV 1 mg/kg (n=3)
# [9] = male, SD, rat, whole blood, PO 10 mg/kg (n=3)
# [10] = both sexes, beagle, dog, whole blood, IV 1 mg/kg (n=3)
# [11] = both sexes, beagle, dog, whole blood, PO 3 mg/kg (n=3)
# T2 sequence (P01116 1-188 isoform P01116-2 G12V): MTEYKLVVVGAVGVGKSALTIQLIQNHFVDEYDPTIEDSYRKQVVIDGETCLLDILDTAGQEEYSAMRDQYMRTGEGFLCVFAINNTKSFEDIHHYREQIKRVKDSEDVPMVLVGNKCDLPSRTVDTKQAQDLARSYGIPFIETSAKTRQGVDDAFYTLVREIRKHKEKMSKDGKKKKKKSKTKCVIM
# T1 sequence (P01116 1-188 isoform P01116-2 G12D): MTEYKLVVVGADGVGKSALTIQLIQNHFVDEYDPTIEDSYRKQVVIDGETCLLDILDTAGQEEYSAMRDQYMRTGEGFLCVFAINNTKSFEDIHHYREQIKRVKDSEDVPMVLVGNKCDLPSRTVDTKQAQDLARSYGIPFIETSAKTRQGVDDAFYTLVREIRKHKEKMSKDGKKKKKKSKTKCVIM
smiles,measurement,setting,value
"CC1OCCCn2c(c3c4cc(ccc42)-c2csc(n2)CC(NC(=O)C2C(C)C2C)C(=O)N2NC(C(=O)OCC(C)(C)C3)C3CC2C3)-c2cc(N3CCN(C)CC3)cnc21 [Example 186, (1r,2R,3S)-2,3-dimethyl-N-((1^5S,6^4S,4S,Z)-1^5,10,10-trimethyl-1^2-(4-methylpiperazin-1-yl)-5,7-dioxo-1^8,1^9-dihydro-1^5H,1^7H-8-oxa-6^2,6^3-diaza-1(13,15)-pyrido[3',2':7,8][1,5]oxazonino[5,6-a]indola-2(4,2)-thiazola-6(2,4)-bicyclo[3.1.1]heptanacycloundecaphane-4-yl)cyclopropane-1-carbox amide]",IC50,[1],0.42 nM
same,IC50,KRAS G12D-cRAF,0.8 nM
same,IC50,KRAS G12V-cRAF,5.4 nM
same,F,[2]; [5],31.1
same,AUC(0-t),[2]; [6],3260 ng·h/mL
same,clearance,[2]; [6],4.45 mL/min/kg
same,half-life,[2]; [6],9.31 h
same,Cmax,[2]; [6],571 ng/mL
same,Vd,"[2]; female, ICR, mouse, whole blood, IV 1 mg/kg (n=3), read-out: Vss",3.09 L/kg
same,AUC(0-t),[2]; [7],10100 ng·h/mL
same,Tmax,[2]; [7],4 h
same,Cmax,[2]; [7],679 ng/mL
same,F,[3]; [5],19.5
same,clearance,[3]; [8],1.93 mL/min/kg
same,half-life,[3]; [8],8.4 h
same,AUC(0-t),[3]; [8],7510 ng·h/mL
same,Cmax,[3]; [8],4250 ng/mL
same,Vd,"[3]; male, SD, rat, whole blood, IV 1 mg/kg (n=3), read-out: Vss",1.2 L/kg
same,AUC(0-t),[3]; [9],14600 ng·h/mL
same,Cmax,[3]; [9],1370 ng/mL
same,Tmax,"[3]; male, SD, rat, whole blood, PO 10 mg/kg (n=3), read-out: Tmax",4 h
same,F,[4]; PO 3 mg/kg vs IV 1 mg/kg (n=3),41.2
same,AUC(0-t),[4]; [10],16600 ng·h/mL
same,clearance,[4]; [10],0.659 mL/min/kg
same,half-life,[4]; [10],34.8 h
same,Cmax,[4]; [10],2020 ng/mL
same,Vd,"[4]; both sexes, beagle, dog, whole blood, IV 1 mg/kg (n=3), read-out: Vss",2.62 L/kg
same,AUC(0-t),[4]; [11],20500 ng·h/mL
same,Tmax,[4]; [11],1.17 h
same,Cmax,[4]; [11],608 ng/mL
